Laboratory results: patent publication US20240139167A1, “LYSOSOME-ASSOCIATED MEMBRANE PROTEIN TARGETING COMPOUNDS AND USES THEREOF” (HADASIT MEDICAL RESEARCH SERVICES AND DEVELOPMENT LTD., priority 2021, published 2024)

Legend:
Gbe^ys/ys mice [1] = experiment: Survival, weight and motor phenotypes in APBD mouse model; type: in vivo
Source text: Pictures of 7-months old Gbe^ys/ys mice treated with vehicle (1L), or Compound 1 (1M) for 3 months prior to photography.
The presented experiments combine in vivo, ex vivo and in vitro studies on the therapeutic potential of the newly discovered compound Compound 1 for treating APBD. In the in vivo section, the inventors have tested Compound 1 for its capacity to correct disease phenotypes in Gbe^ys/ys female mice. Two arms, 5% DMSO vehicle and Compound 1, of initially n=7-9 animals each were used. […] Additional open field, gait, and extension reflex tests (FIGS. 1E-1H) also included a C57BL/6 wild type control arm of n=9 animals. Animals were excluded from the experiment if weight was reduced by >10% between sequential weightings or by >20% from initiation. […] 150 μL of 250 mg/kg Compound 1 in 5% DMSO were injected twice a week. Vehicle control was 5% DMSO. Injection was intravenous (IV) for the first month, followed by subcutaneous (SC) injection due to lack of injection space and scaring in animal tails. The inventors initiated the injections either at the age of 4 months, two months prior to disease onset, assuming a preferred prophylactic effect, or at the 6 months age of onset for comparison. Treatment was continued until the age of 10 months. The effect of Compound 1 on various motor parameters was tested approximately every two weeks. At the end of these experiments, some of the mice were sacrificed by cervical dislocation and tissues from n=2 wild type, n=7 Gbe^ys/ys vehicle-treated, and n=9 Compound 1-treated mice were collected, sectioned, fixed, and stained for diastase-resistant PG by PAS (FIGS. 2A-2C). Tissue glycogen was determined biochemically as described. In addition, Compound 1 pharmacokinetic profile was determined by LC-MS/MS in serum and tissues derived from n=3 mice/time point. Experimenters were blinded to treatment allocation.
In FIGS. 1A-1M the significance of overall trends was tested by Two-way ANOVA with repeated measures. […] The Bonferroni test was used to compare between Compound 1 and vehicle in a way which corrects for the multiple comparisons and is therefore very robust (since the threshold for determining significance at each time point is reduced in a manner inversely proportional to the number of comparisons). […] In FIGS. 4D and 6E the inventors used One Way ANOVA with Sidak's post-hoc correction for multiple comparisons. Other statistical tests used were Student t-tests.

Gbe^ys/ys mice [2] = experiment: Transmission electron microscopy of liver sections, lysosomal glycogen; type: in vivo; conditions: 9.5 month old mice
Source text: FIGS. 6A-6E include bar graphs of autophagic flux, determined by the extent of lysosomal inhibitors-dependent increase in the ratio of lipidated to non-lipidated LC3 (LC3II/LC3I) (6A); representative TEM images of liver tissue from 9.5 month old Gbe^ys/ys mice treated with Compound 11, or 5% DMSO vehicle (6B), G: Glycogen (alpha particles) and polyglucosan (structures with variable electron densities), L: Lysosomes, M: Mitochondria; right panel: lysosomal glycogen stain was quantified by ImageJ “count particle” tool; micrograph of LAMP1 knocked down and control APBD primary skin fibroblasts treated or not with Compound 1 and lysosomal inhibitors (LI) and quantification of 3 experiments and results of Student's t-tests. *, p<0.1; **, p<0.05; ***, p<0.01 (6C); graphs of lysosomal pH changes determined in APBD primary fibroblasts transduced with lentiviruses encoding for GFP or GFP-shLAMP1 and treated or not with Compound 1 for 24 h and confocal microscope images of cells treated with Lysosensor and stained for PAS (6D); and bar graph of ATP production rate assay in LAMP1-KD and GFP (Control) cells treated for 24 h (chronic) or on assay (acute) with Compound 1 (6E).
Liver tissue was minced and fixed in a solution containing 2% paraformaldehyde, 2.5% glutaraldehyde (EM grade) in 0.1 M sodium cacodylate buffer pH 7.3 for 2 hours at RT, followed by 24 h at 4 ° C. […]

[3] = test system: microglia cells from brains of 5XFAD mice; experiment: LC3, p62 and PAS staining of microglia from AD model; type: cell-based; conditions: 50 μM, 24 h
Experimental: FIGS. 19A-19B include fluorescent micrographs showing microglia cells which were isolated from the brains of AD modeling 5XFAD mice by CD11b magnetic beads. Microglia were then incubated for 24 h with (treated), or without (untreated) 50 μM 144DG11, fixed and stained for the autophagic substrates LC3 (19A) and p62 (19B) and for glycogen by PAS, all as indicated. Reduction in the levels of both LC3 and p62 indicate induction of autophagy which degrades these substrates.
Being the most pro-inflammatory tissue in the brain, microglia are currently at the epicenter of innovative therapeutic research for AD. Moreover, as neuroinflammation is now accepted as the main pathogenic factor in AD and as activation of microglia autophagy and mitophagy is a leading therapeutic strategy (see, for instance, Eshraghi et al., (2021)), 144DG11 holds promise as a potential AD therapeutic.

For COCCN(Cc1sccc1C)C(=O)c1cc(C)nc(O)c1 [Compound 1], the “animal weight over time” value (Gbe^ys/ys mice [1]; 250 mg/kg twice a week from age 4 months) was “mitigated the decline in animal weight over time”, the animal survival (Gbe^ys/ys mice [1]; 250 mg/kg twice a week from age 4 months, vs 5% DMSO vehicle) was “significantly improved animal survival” and the “ameliorating effect on open field, weight and overall extension reflex” value (Gbe^ys/ys mice [1]; administered after disease onset at the age 6 months) was “ameliorating effect did not take place”. The Extension reflex (Gbe^ys/ys mice [1]; administered at onset (6 months), at the age of 9 months) was “only parameter improved by the compound from the advanced stage of the disease”, the open field performance (Gbe^ys/ys mice [1]; from 8 months, 134 days post injection) was “improved open field performance” and the “gait (stride length)” value (Gbe^ys/ys mice [1]; mouse age of 9 months) was “improved gait, or increased stride length”. For the same compound, the overall extension reflex (Gbe^ys/ys mice [1]; throughout the study period, p<0.05) was “significantly improved”, the “lysosomal glycogen in liver sections” value (Gbe^ys/ys mice [2]) was “decrease in lysosomal glycogen” and the glycogen levels [3] was “did not lower glycogen levels”. The “total LC3 and p62” value [3] was “decrease”.
